Data from PubChem BioAssay AID2060495 (Molecular Pharmacology Branch, DTP, NCI, 2025).

System: 521955-158-R2-J5-PDC complex spheroid viability
Experiment: Anticancer human tumor 521955-158-R2-J5-PDC patient-derived pancreatic carcinoma cell line growth inhibition [GQUAD]
Details: for IC50: curve of first compound; for viability, T/C: stronger effect = lower value
Description: DNA G-quadruplex Stabilizer Agents in Combinations in Complex Spheroids
A high-throughput screen of multi-cell type tumor spheroids was designed to identify active combinations of DNA G-quadruplex stabilizer agents and targeted small molecules. Complex spheroids include a stromal component modeled by human endothelial cells (HUVEC) and fibroblasts modeled by human mesenchymal stem cells (MSCs). The concentration ranges selected for each drug and investigational agent were based upon clinically achievable concentrations if the clinical Cmax of the agent was known.
Compounds. The drugs and investigational agents: pidnarulex (CX-5461; NSC782164), APTO-253 (NSC789042), BRACO-19 (NSC847499), peposertib (NSC802822), ceralasertib (NSC780249), elimusertib (NSC800525), camonsertib (NSC841442), AZD-1390 (NSC803789), olaparib (NSC753686), talazoparib (NSC767125), ART-558 (NSC835418), sotorasib (NSC818433), MRTX-1133 (NSC836407), SN-38 (NSC673596), topotecan (NSC609699), etoposide (NSC141540), doxorubicin (NSC123127), gemcitabine (NSC613327), 5-fluorouracil (NSC19893), paclitaxel (NSC125973), vemurafenib (NSC761431), panobinostat (NSC761190), R-306465 (JNJ-16241199; NSC773264), adavosertib (NSC754352), TP-3654 (NSC805149), carboplatin (NSC241240), KSQ-4279 (NSC840948), and staurosporine (NSC755774) were obtained from the National Cancer Institute (NCI) Developmental Therapeutics Program Chemical Repository (34). The FDA-approved anticancer drug set is available from the NCI Developmental Therapeutics Program. […] The stock solutions were prepared in dimethyl sulfoxide (DMSO, Sigma-Aldrich, St. Louis, MO, cat. D2650) at 800-fold the tested concentration and stored at -70 degrees C prior to their use. All drugs and investigational agents were tested over a range starting from a high concentration at or near the clinical Cmax and decreasing in half-log increments. If the clinical Cmax for an agent had not been determined, the highest concentration tested was 10 microM.
2.3 Cell Culture. All cells were maintained in an incubator at 37 degrees C and 5% CO2 with 95% humidity. The PDC lines were cultured according to standard operating procedures established by the NCI PDMR. All PDCs were thawed and cultured in Matrigel-coated flasks prepared with a working solution of 1X Ham's F-12 nutrient mix, without supplementation (Invitrogen, cat. 11765054), 100 U/mL penicillin-streptomycin (Invitrogen, cat. 15140122), and 2.5% Matrigel (Corning Inc., cat. 354248) for the first three passages. The 857933-349-R-J2-PDC line was cultured in 6C/Colon 1B media, which includes advanced DMEM/F-12 (Thermo Fisher Scientific, cat. 12634028), 10 mM HEPES (Thermo Fisher Scientific, cat. 15630080), 1X GlutaMAX supplement (Thermo Fisher Scientific, cat. 35050061), 0.1 mg/mL primocin (InvivoGen, cat. ant-pm-2), 10% defined fetal bovine serum, heat inactivated (HyClone Laboratories Inc., cat. SH30070.03HI), 50% L-WRN conditioned media (ATCC, cat. CRL-3276), 1.25 mM N-Acetyl-L-cysteine (Sigma-Aldrich, cat. A9165), 10 mM nicotinamide (Sigma-Aldrich, cat. N0636), 1X B-27 supplement (Thermo Fisher Scientific, cat. 17504044), 1X N-2 supplement (Thermo Fisher Scientific, cat. 17502048), 10 microM Y-27632 dihydrochloride (Tocris Bioscience, cat. 1254), and 50 ng/mL human EGF recombinant protein (Thermo Fisher Scientific, cat. PHG0311). The 485176-168-R4-J1-PDC line was cultured in Panc media, which includes all 6C/Colon 1B media components plus 100 ng/mL human FGF-10 (Thermo Fisher Scientific, cat. 100-26), 500 nM SB-431542 (Selleckchem, cat. S1067), and gastrin (Tocris, cat. 3006).
[…]

[1] = second compound 0.0316 µM, first compound 0.0316 µM
[2] = second compound 0.0316 µM, first compound 0.1 µM
[3] = second compound 0.0316 µM, first compound 0.316 µM
[4] = second compound 0.0316 µM, first compound 1 µM
[5] = second compound 0.0316 µM, first compound 3.16 µM
[6] = second compound 0.0316 µM, first compound 10 µM
[7] = second compound 0.1 µM, first compound 0.0316 µM
[8] = second compound 0.1 µM, first compound 0.1 µM
[9] = second compound 0.1 µM, first compound 0.316 µM
[10] = second compound 0.1 µM, first compound 1 µM
[11] = second compound 0.1 µM, first compound 3.16 µM
[12] = second compound 0.1 µM, first compound 10 µM
[13] = second compound 0.316 µM, first compound 0.0316 µM
[14] = second compound 0.316 µM, first compound 0.1 µM
[15] = second compound 0.316 µM, first compound 0.316 µM
[16] = second compound 0.316 µM, first compound 1 µM
[17] = second compound 0.316 µM, first compound 3.16 µM
[18] = second compound 0.316 µM, first compound 10 µM
[19] = second compound 1 µM, first compound 0.0316 µM
[20] = second compound 1 µM, first compound 0.1 µM
[21] = second compound 1 µM, first compound 0.316 µM
[22] = second compound 1 µM, first compound 1 µM
[23] = second compound 1 µM, first compound 3.16 µM
[24] = second compound 1 µM, first compound 10 µM
[25] = second compound 3.16 µM, first compound 0.0316 µM
[26] = second compound 3.16 µM, first compound 0.1 µM
[27] = second compound 3.16 µM, first compound 0.316 µM
[28] = second compound 3.16 µM, first compound 1 µM
[29] = second compound 3.16 µM, first compound 3.16 µM
[30] = second compound 3.16 µM, first compound 10 µM
[31] = second compound 10 µM, first compound 0.0316 µM
[32] = second compound 10 µM, first compound 0.1 µM
[33] = second compound 10 µM, first compound 0.316 µM
[34] = second compound 10 µM, first compound 1 µM
[35] = second compound 10 µM, first compound 3.16 µM
[36] = second compound 10 µM, first compound 10 µM
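Note: spheroids exposed to agents for one week before reading.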
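Throughout, for viability, T/C: 100% = DMSO vehicle control viability.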

Which results are given for CC1COCCN1c1cc(-c2ccnn2C)c2ccnc(-c3ccn[nH]3)c2n1 (centres undefined) + CN(C)c1ccc(Nc2c3ccc(NC(=O)CCN4CCCC4)cc3nc3cc(NC(=O)CCN4CCCC4)ccc23)cc1?
IC50 (second compound 0.0316 µM): 66.1 nM; IC50 (second compound 0.1 µM): 54.6 nM; IC50 (second compound 0.316 µM): 55.7 nM; IC50 (second compound 1 µM): 52.7 nM; IC50 (second compound 3.16 µM): 52.6 nM; IC50 (second compound 10 µM): 32.6 nM; viability, T/C [1]: 86.1%; viability, T/C [2]: 30.1%; viability, T/C [3]: 19.8%; viability, T/C [4]: 20.6%; viability, T/C [5]: 26.6%; viability, T/C [6]: 33.5%; viability, T/C [7]: 66.2%; viability, T/C [8]: 33.7%; viability, T/C [9]: 21.2%; viability, T/C [10]: 20.9%; viability, T/C [11]: 26.8%; viability, T/C [12]: 40.1%; viability, T/C [13]: 69.6%; viability, T/C [14]: 31.2%; viability, T/C [15]: 15.5%; viability, T/C [16]: 19.8%; viability, T/C [17]: 31.2%; viability, T/C [18]: 39.2%; viability, T/C [19]: 66.5%; viability, T/C [20]: 31.1%; viability, T/C [21]: 16%; viability, T/C [22]: 18.4%; viability, T/C [23]: 34.4%; viability, T/C [24]: 30.2%; viability, T/C [25]: 68%; viability, T/C [26]: 28.4%; viability, T/C [27]: 17.4%; viability, T/C [28]: 17.5%; viability, T/C [29]: 25.1%; viability, T/C [30]: 33.6%; viability, T/C [31]: 50.1%; viability, T/C [32]: 36%; viability, T/C [33]: 21.6%; viability, T/C [34]: 23.8%; viability, T/C [35]: 23.2%; viability, T/C [36]: 26.6%

For COc1cc(C2c3cc4c(cc3C(OC3OC5COC(C)OC5C(O)C3O)C3COC(=O)C23)OCO4)cc(OC)c1O (centres undefined) + CN(C)c1ccc(Nc2c3ccc(NC(=O)CCN4CCCC4)cc3nc3cc(NC(=O)CCN4CCCC4)ccc23)cc1, which IC50 (second compound 0.0316 µM) is on record?
Its IC50 is 771 nM.

And the IC50 (second compound 0.1 µM)?
Its IC50 is 808 nM.

What about the IC50 (second compound 0.316 µM) of the same compound?
Its IC50 is 689 nM.

What about the IC50 (second compound 1 µM) of the same compound?
The IC50 was 650 nM.

And the IC50 (second compound 3.16 µM)?
The IC50 was 551 nM.

And the IC50 (second compound 10 µM)?
The IC50 was 594 nM.

What about the viability, T/C [1] of the same compound?
Its viability, T/C is 109%.

And the viability, T/C [2]?
The viability, T/C was 89.3%.

What about the viability, T/C [3] of the same compound?
The viability, T/C was 65%.

And the viability, T/C [4]?
Its viability, T/C is 45.1%.

What about the viability, T/C [5] of the same compound?
The viability, T/C was 30.1%.

And the viability, T/C [6]?
The viability, T/C was 17.1%.

What about the viability, T/C [7] of the same compound?
Its viability, T/C is 82.9%.

And the viability, T/C [8]?
Its viability, T/C is 104%.

What about the viability, T/C [9] of the same compound?
Its viability, T/C is 76.5%.

What about the viability, T/C [10] of the same compound?
The viability, T/C was 43.1%.

What about the viability, T/C [11] of the same compound?
Its viability, T/C is 32.5%.

What about the viability, T/C [12] of the same compound?
The viability, T/C was 20.1%.

What about the viability, T/C [13] of the same compound?
The viability, T/C was 94.2%.

What about the viability, T/C [14] of the same compound?
Its viability, T/C is 85.3%.

And the viability, T/C [15]?
Its viability, T/C is 69.5%.

What about the viability, T/C [16] of the same compound?
Its viability, T/C is 40.1%.

And the viability, T/C [17]?
The viability, T/C was 25.6%.

And the viability, T/C [18]?
The viability, T/C was 18.2%.

And the viability, T/C [19]?
Its viability, T/C is 89.5%.

What about the viability, T/C [20] of the same compound?
The viability, T/C was 93.5%.

And the viability, T/C [21]?
The viability, T/C was 55.8%.

And the viability, T/C [22]?
The viability, T/C was 45.8%.

What about the viability, T/C [23] of the same compound?
The viability, T/C was 28%.

What about the viability, T/C [24] of the same compound?
Its viability, T/C is 19.2%.

And the viability, T/C [25]?
The viability, T/C was 97.5%.

What about the viability, T/C [26] of the same compound?
Its viability, T/C is 78.9%.

What about the viability, T/C [27] of the same compound?
Its viability, T/C is 61.4%.

And the viability, T/C [28]?
The viability, T/C was 39%.

What about the viability, T/C [29] of the same compound?
The viability, T/C was 26%.

What about the viability, T/C [30] of the same compound?
The viability, T/C was 19.9%.

And the viability, T/C [31]?
Its viability, T/C is 79.1%.

What about the viability, T/C [32] of the same compound?
The viability, T/C was 71%.

And the viability, T/C [33]?
The viability, T/C was 55.2%.

And the viability, T/C [34]?
The viability, T/C was 43%.

What about the viability, T/C [35] of the same compound?
The viability, T/C was 36.1%.

What about the viability, T/C [36] of the same compound?
The viability, T/C was 23.3%.
